As a reminder, the IC50 is the concentration needed to halve the response being measured.

From publication PMC6832265 (Molecules, 2019) come the findings set out here.

This test deals with T1, Tdp1 (Homo sapiens, UniProt Q9NUW8).
T1 construct: made in house; host or cells: Escherichia coli
Briefly: Real-time detection of Tdp1 activity (5'-FAM/3'-BHQ1 oligonucleotide biosensor). Particulars: 1.5 nM Tdp1, 50 nM oligonucleotide substrate, 26 °C. It is filed as biochemical. The text has this: We first studied the inhibition potency of our compounds to Tdp1 by using a real-time oligonucleotide biosensor assay that we have previously developed. The assay was based on the ability of Tdp1 to remove the fluorescence quencher from the 3’-end of DNA. The substrate is a 16-mer single-stranded oligonucleotide containing both a 5’-FAM fluorophore and a 3’-BHQ1 quencher.
A fluorophore quencher-coupled DNA-biosensor for real-time measurement of Tdp1 cleavage activity was recently designed in our laboratory. The biosensor is a 16-mer single-stranded oligonucleotide containing both a 5’-FAM fluorophore donor and a quenching 3’-BHQ1 moiety.
Recombinant protein Tdp1 was expressed in EsCherichia coli (pET 16B plasmid containing Tdp1 cDNA provided by Dr. K.W. Caldecott, University of Sussex, United Kingdom) and isolated as described. The reaction mixture in a final volume 200 μL contained Tdp1 reaction buffer (50 mM Tris-HCl, 50 mM NaCl, 7 mM β-mercaptoethanol), 50 nM oligonucleotide substrate, and varied concentrations of potential inhibitor. Purified Tdp1 was added in a final concentration of 1.5 nM.
The reaction mixtures were incubated at a constant temperature of 26 °C in a POLARstar OPTIMA fluorimeter, BMG LABTECH, GmbH, to measure fluorescence intensity every minute (Ex485/Em520 nm). Tdp1 inhibition was calculated by comparing the rate of increase in fluorescence of the biosensor in the presence of the compound to that of DMSO (1.5%) control wells. The measurements were carried out in at least two independent experiments. IC50 values were determined using a six-point concentration response curve. The data were imported into the MARS Data Analysis 2.0 program (BMG LABTECH) and the slope during the linear phase (data from 0 to 7 min) was calculated.

T1 sequence (Q9NUW8 whole entry): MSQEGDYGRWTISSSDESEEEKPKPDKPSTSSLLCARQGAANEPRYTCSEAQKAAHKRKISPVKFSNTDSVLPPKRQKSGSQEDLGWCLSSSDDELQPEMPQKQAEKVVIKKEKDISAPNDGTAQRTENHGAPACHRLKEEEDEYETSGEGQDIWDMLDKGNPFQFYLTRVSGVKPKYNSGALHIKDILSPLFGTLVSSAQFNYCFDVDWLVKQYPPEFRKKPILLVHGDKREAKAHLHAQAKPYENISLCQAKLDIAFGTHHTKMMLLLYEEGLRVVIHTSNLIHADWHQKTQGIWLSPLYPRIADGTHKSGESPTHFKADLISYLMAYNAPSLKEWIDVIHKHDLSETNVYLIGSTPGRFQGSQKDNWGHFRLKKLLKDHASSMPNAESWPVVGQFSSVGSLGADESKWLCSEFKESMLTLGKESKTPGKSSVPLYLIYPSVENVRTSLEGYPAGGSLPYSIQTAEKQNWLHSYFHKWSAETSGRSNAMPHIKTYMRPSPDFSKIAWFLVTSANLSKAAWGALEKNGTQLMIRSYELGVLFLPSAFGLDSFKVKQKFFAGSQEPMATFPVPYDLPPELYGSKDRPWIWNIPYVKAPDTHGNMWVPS

In turn, `CC(=O)C1=C(O)C=C2Oc3c(-c4csc(N/N=C/c5ccc(C)s5)n4)c(O)c(C)c(O)c3[C@]2(C)C1=O` [(−)-16e, (2S)-4-Acetyl-5,11,13-trihydroxy-2,12-dimethyl-10-{2-[(E)-2-[(5-methylthiophen-2-yl)methylidene]hydrazin-1-yl]-1,3-thiazol-4-yl}-8-oxatricyclo[7.4.0.0^2,7]trideca-1(9),4,6,10,12-pentaen-3-one] had an IC50 of 0.054 ± 0.025 µM.
Turning to `CC(=O)C1=C(O)C=C2Oc3c(-c4csc(N/N=C/c5ccccn5)n4)c(O)c(C)c(O)c3[C@]2(C)C1=O` [(−)-16b, 2-[(1E)-(2-{4-[(1S)-12-Acetyl-3,5,11-trihydroxy-1,4-dimethyl-13-oxo-8-oxatricyclo [7.4.0.0^2,7]trideca-2(7),3,5,9,11-pentaen-6-yl]-1,3-thiazol-2-yl}hydrazin-1-ylidene)methyl]pyridin-1-ium bromide], the IC50 is 1.48 ± 0.265 µM.
As for `CC(=O)C1=C(O)C=C2Oc3c(-c4csc(N/N=C/c5cccn5C)n4)c(O)c(C)c(O)c3[C@]2(C)C1=O` [(−)-16n, (2S)-4-Acetyl-5,11,13-trihydroxy-2,12-dimethyl-10-{2-[(E)-2-[(1-methyl-pyrrol-2-yl)methylidene]hydrazin-1-yl]-1,3-thiazol-4-yl}-8-oxatricyclo[7.4.0.0^2,7]trideca-1(9),4,6,10,12-pentaen-3-one], the figure is 0.029 ± 0.009 µM; as for `COc1ccc(/C=N/Nc2nc(-c3c(O)c(C)c(O)c4c3OC3=CC(O)=C(C(C)=O)C(=O)[C@]34C)cs2)cc1CN1CCN(c2ccccc2OC)CC1` [(−)-17j, (2S)-4-Acetyl-10-{2-[(E)-2-[(3-{[4-(2-methoxyphenyl)piperazin-1-yl]methyl}-4-methoxyphenyl)methylidene]hydrazin-1-yl]-1,3-thiazol-4-yl}-5,11,13-trihydroxy-2,12-dimethyl-8-oxatricyclo[7.4.0.0^2,7]trideca-1(9),4,6,10,12-pentaen-3-one], 0.071 ± 0.015 µM.
With `COc1ccc(/C=N/Nc2nc(-c3c(O)c(C)c(O)c4c3OC3=CC(O)=C(C(C)=O)C(=O)[C@]34C)cs2)cc1CN1CCN(c2ccc(F)cc2)CC1` [(−)-17i, (2S)-4-Acetyl-10-{2-[(E)-2-[(3-{[4-(4-fluorophenyl)piperazin-1-yl]methyl}-4-methoxyphenyl)methylidene]hydrazin-1-yl]-1,3-thiazol-4-yl}-5,11,13-trihydroxy-2,12-dimethyl-8-oxatricyclo[7.4.0.0^2,7]trideca-1(9),4,6,10,12-pentaen-3-one] the figure was 0.059 ± 0.005 µM; with `COc1ccc(/C=N/Nc2nc(-c3c(O)c(C)c(O)c4c3OC3=CC(O)=C(C(C)=O)C(=O)[C@]34C)cs2)cc1CSc1cc(C)ccc1C(C)(C)C` [(−)-17g, (2S)-4-Acetyl-10-{2-[(E)-2-[(3-{[(2-tert-butyl-5-methylphenyl)sulfanyl]methyl}-4-methoxyphenyl)methylidene]hydrazin-1-yl]-1,3-thiazol-4-yl}-5,11,13-trihydroxy-2,12-dimethyl-8-oxatricyclo[7.4.0.0^2,7]trideca-1(9),4,6,10,12-pentaen-3-one], 0.094 ± 0.02 µM; with `COc1ccc(/C=N/Nc2nc(-c3c(O)c(C)c(O)c4c3OC3=CC(O)=C(C(C)=O)C(=O)[C@]34C)cs2)cc1COc1ccc(F)cc1` [(−)-17a, (2S)-4-Acetyl-10-{2-[(E)-2-({3-[(4-fluorophenoxy)methyl]-4-methoxyphenyl}methylidene)hydrazin-1-yl]-1,3-thiazol-4-yl}-5,11,13-trihydroxy-2,12-dimethyl-8-oxatricyclo[7.4.0.0^2,7]trideca-1(9),4,6,10,12-pentaen-3-one], 0.054 ± 0.003 µM.
With `CC(=O)C1=C(O)C=C2Oc3c(-c4csc(N/N=C/c5cc(Br)cs5)n4)c(O)c(C)c(O)c3[C@@]2(C)C1=O` [(+)-16h, (2R)-4-Acetyl-5,11,13-trihydroxy-2,12-dimethyl-10-{2-[(E)-2-[(4-bromothiophen-2-yl)methylidene]hydrazin-1-yl]-1,3-thiazol-4-yl}-8-oxatricyclo[7.4.0.0^2,7]trideca-1(9),4,6,10,12-pentaen-3-one] the figure was 0.07 ± 0.018 µM; with `CC(=O)C1=C(O)C=C2Oc3c(-c4csc(N/N=C/c5sccc5C)n4)c(O)c(C)c(O)c3[C@@]2(C)C1=O` [(+)-16i, (2R)-4-Acetyl-5,11,13-trihydroxy-2,12-dimethyl-10-{2-[(E)-2-[(3-methylthiophen-2-yl)methylidene]hydrazin-1-yl]-1,3-thiazol-4-yl}-8-oxatricyclo[7.4.0.0^2,7]trideca-1(9),4,6,10,12-pentaen-3-one], 0.072 ± 0.003 µM; with `COc1ccc(/C=N/Nc2nc(-c3c(O)c(C)c(O)c4c3OC3=CC(O)=C(C(C)=O)C(=O)[C@]34C)cs2)cc1COc1cccc(F)c1` [(−)-17b, (2S)-4-Acetyl-10-{2-[(E)-2-({3-[(3-fluorophenoxy)methyl]-4-methoxyphenyl}methylidene)hydrazin-1-yl]-1,3-thiazol-4-yl}-5,11,13-trihydroxy-2,12-dimethyl-8-oxatricyclo[7.4.0.0^2,7]trideca-1(9),4,6,10,12-pentaen-3-one], 0.078 ± 0.003 µM.
`CC(=O)C1=C(O)C=C2Oc3c(-c4csc(N/N=C/c5c[nH]c6ccccc56)n4)c(O)c(C)c(O)c3[C@]2(C)C1=O` [(−)-16p, (2S)-4-Acetyl-5,11,13-trihydroxy-2,12-dimethyl-10-{2-[(E)-2-[(1H-indole-3-yl)methylidene] hydrazin-1-yl]-1,3-thiazol-4-yl}-8-oxatricyclo[7.4.0.0^2,7]trideca-1(9),4,6,10,12-pentaen-3-one] yielded an IC50 of 0.057 ± 0.001 µM.
With “(2R)-4-Acetyl-5,11,13-trihydroxy-2,12-dimethyl-10-{2-[(E)-2-[(1H-2-methyl-indole-3-yl) methylidene]hydrazin-1-yl]-1,3-thiazol-4-yl}-8-oxatricyclo[7.4.0.0^2,7]trideca-1(9),4,6,10,12-pentaen-3-one [(+)-16q]” the figure was 0.021 ± 0.006 µM; with `CC(=O)C1=C(O)C=C2Oc3c(-c4csc(N/N=C/c5cccnc5)n4)c(O)c(C)c(O)c3[C@@]2(C)C1=O` [(+)-16c, 3-[(1E)-(2-{4-[(1R)-12-Acetyl-3,5,11-trihydroxy-1,4-dimethyl-13-oxo-8-oxatricyclo[7.4.0.0^2,7]trideca-2(7),3,5,9,11-pentaen-6-yl]-1,3-thiazol-2-yl}hydrazin-1-ylidene)methyl]pyridin-1-ium bromide], 0.353 ± 0.017 µM.
In the case of `CC(=O)C1=C(O)C=C2Oc3c(-c4csc(N/N=C/c5cccs5)n4)c(O)c(C)c(O)c3[C@@]2(C)C1=O` [(+)-16g, (2R)-4-Acetyl-5,11,13-trihydroxy-2,12-dimethyl-10-{2-[(E)-2-[(thiophen-2-yl)methylidene] hydrazin-1-yl]-1,3-thiazol-4-yl}-8-oxatricyclo[7.4.0.0^2,7]trideca-1(9),4,6,10,12-pentaen-3-one], it took 0.052 ± 0.018 µM to reach half-maximal inhibition (IC50).
With `CC(=O)C1=C(O)C=C2Oc3c(-c4csc(N/N=C/c5ccncc5)n4)c(O)c(C)c(O)c3[C@]2(C)C1=O` [(−)-16a, 4-[(1E)-(2-{4-[(1S)-12-Acetyl-3,5,11-trihydroxy-1,4-dimethyl-13-oxo-8-oxatricyclo[7.4.0.0^2,7]trideca-2(7),3,5,9,11-pentaen-6-yl]-1,3-thiazol-2-yl}hydrazin-1-ylidene)methyl]pyridin-1-ium bromide] the figure was 0.139 ± 0.038 µM.
As for `CC(=O)C1=C(O)C=C2Oc3c(-c4csc(N/N=C/c5ccc([N+](=O)[O-])s5)n4)c(O)c(C)c(O)c3[C@]2(C)C1=O` [(−)-16d, (2S)-4-Acetyl-5,11,13-trihydroxy-2,12-dimethyl-10-{2-[(E)-2-[(5-nitrothiophen-2-yl)methylidene]hydrazin-1-yl]-1,3-thiazol-4-yl}-8-oxatricyclo[7.4.0.0^2,7]trideca-1(9),4,6,10,12-pentaen-3-one], the figure is 0.142 ± 0.004 µM.
As for `CC(=O)C1=C(O)C=C2Oc3c(-c4csc(N/N=C/c5ccc[nH]5)n4)c(O)c(C)c(O)c3[C@@]2(C)C1=O` [(+)-16m, (2R)-4-Acetyl-5,11,13-trihydroxy-2,12-dimethyl-10-{2-[(E)-2-[(1H-pyrrol-2-yl)methylidene] hydrazin-1-yl]-1,3-thiazol-4-yl}-8-oxatricyclo[7.4.0.0^2,7]trideca-1(9),4,6,10,12-pentaen-3-one], the figure is 0.188 ± 0.003 µM; as for `CC(=O)C1=C(O)C=C2Oc3c(-c4csc(N/N=C/c5ccoc5)n4)c(O)c(C)c(O)c3[C@@]2(C)C1=O` [(+)-16l, (2R)-4-Acetyl-5,11,13-trihydroxy-2,12-dimethyl-10-{2-[(E)-2-[(furan-3-yl)methylidene] hydrazin-1-yl]-1,3-thiazol-4-yl}-8-oxatricyclo[7.4.0.0^2,7]trideca-1(9),4,6,10,12-pentaen-3-one], 0.077 ± 0.006 µM; as for `CC(=O)C1=C(O)C=C2Oc3c(-c4csc(N/N=C/c5sccc5C)n4)c(O)c(C)c(O)c3[C@]2(C)C1=O` [(−)-16i, (2S)-4-Acetyl-5,11,13-trihydroxy-2,12-dimethyl-10-{2-[(E)-2-[(3-methylthiophen-2-yl)methylidene]hydrazin-1-yl]-1,3-thiazol-4-yl}-8-oxatricyclo[7.4.0.0^2,7]trideca-1(9),4,6,10,12-pentaen-3-one], 0.121 ± 0.025 µM.
